The target of test [1] is T1, Aβ42 peptide (Homo sapiens, UniProt P05067).
T1 construct: Synthetic Aβ42 (GenScript) was dissolved in hexafluoro-2-propanol (HFIP); purchased GenScript; host or cells: chemical synthesis
Description: TEM of Aβ42 fibril growth. The settings on record: Aβ42 10 μM, compound 50 μM, 6–48 h, 37 °C. As for the experimental part:
We selected compound 11r for further investigation of its ability to interfere with the Aβ42 aggregation process in vitro. The decision was based on the structural potential of the chromeno[3,4-b]-xanthone scaffold, the encouraging results for 11r, and its overall profile in our preliminary studies. […] The morphological changes of Aβ42 species were assessed through transmission electron microscopy (TEM), in the presence and absence of 11r. […] In the absence of 11r (Figure , top panels), as early as 6 h of incubation at 37 °C, (white arrow), short (white arrowhead) and long fibrils were detected. As incubation progressed, long fibrils were more abundant, while other species became scarce, resulting in bundles of tangled fibrils after 48 h (Figure ).
Synthetic Aβ42 (GenScript) was dissolved in hexafluoro-2-propanol (HFIP) (Merck) and left at room temperature (RT) for 48 h. Subsequently, the HFIP was removed using a stream of nitrogen, and the resulting powder was dissolved in dimethyl sulfoxide (DMSO) (Sigma-Aldrich) at a concentration of 2000 μM. […]
The βnalysis of the morphology and fibril formation of samples coincubated with Aβ42 (10 μM) (GenScript) and the selected compounds (50 μM) at different time-points (6, 12, 24, and 48 h) at 37 °C, was assessed through TEM. […]

Test [2] has as its system Aβ42 aggregates in SH-SY5Y (SHwt) cells. The experiment in a line: Confocal microscopy (ThT) of Aβ42 aggregates in SH-SY5Y cells expressing APP695. To be noted: 25 μM compound with Aβ42 10 μM, 48 h.
Description: A stock solution of Aβ42 (GenScript) was prepared in DMSO to a concentration of 2000 μM. SH-SY5Y cells stably expressing wild-type APP695 (SHwt) were used. The cells were cultured in Dulbecco’s Modified Eagle Medium (DMEM, Gibco), supplemented with 10% of Fetal Bovine Serum (FBS, Sigma-Aldrich), and 2% of Pen-Strep-Glut (Gibco). […] 2.0 × 10^4 SH-WT cells were plated in 24-well plates and incubated for 24 h, in 12 ømm glass coverslips. […] Cells incubated with Aβ42 and 1% DMSO were used as the positive control. After this period, the medium was changed to fresh DMEM medium without FBS, and the cells were incubated for another 24 h. After the incubation period, cells were washed with PBS, fixed in 4% formaldehyde for 30 min, permeabilized with 0.2% Triton X-100 in PBS for 10 min and blocked with 1% BSA for 10 min. […] Cells were washed three times between each step. Coverslips with cells were mounted with CitiFluor MWL4–88 (Electron Microscopy Sciences).
Test [3] concerns the target T2, Tau protein aggregation (Homo sapiens, UniProt P10636).
T2 construct: For the cloning and overexpression of full-length tau protein; expressed in transfected cells; host or cells: E. coli BL21 (DE3) carrying pTARA and pRKT42
The experiment in a line: Thioflavin S assay of tau protein aggregation in E. coli cells overexpressing tau. Type of test: cell-based, Escherichia coli. To be noted: read-out: Tau inhibition %. As for the experimental part:
The antiaggregating profiles of both series A and B were evaluated using a fluorescence Thioflavin S (ThS) assay in cellulo, which monitors ThS fluorescence in the presence of β-sheet-rich structures, such as Aβ and tau protein aggregates. This method, based on recombinant Escherichia coli (E. coli) bacteria overexpressing insoluble aggregates, offers a simple and cost-effective approach to model aggregation processes in mammalian systems and has been validated for use in drug discovery studies. , Compounds were tested at a screening concentration of 50 μM for their ability to inhibit Aβ42 aggregation. The results, summarized in Table , reveal distinct antiaggregating profiles between series A and B, which are once again influenced by their structural differences.
This strategic extension aimed to validate the chromeno[3,4-b]-xanthone scaffold for related aggregation targets, considering the structural and pathological similarities between Aβ and tau aggregation processes. […]. […] Nevertheless, it is important to interpret the results cautiously, as the inability of certain compounds to cross bacterial membranes, may have underestimated their true inhibitory activity in the assay.
For the cloning and overexpression of full-length tau protein, E. coli BL21 (DE3) competent cells were transformed first with the pTARA vector containing the RNA polymerase gene of phage T7 (T7RP), controlled by the PBAD promoter. Subsequently, E. coli BL21(DE3) competent cells containing pTARA were transformed with the pRKT42 vector encoding four repeats of tau protein in two inserts. Similar to the procedure for Aβ42, overnight cultures were prepared by inoculating colonies of BL21 (DE3) cells bearing the plasmids in M9 medium supplemented with 0.5% glucose, 50 μg mL^–1 ampicillin, and 12.5 μg mL^–1 chloramphenicol at 37 °C. Upon induction, a 1:500 dilution of the overnight culture was added to fresh M9 minimal medium containing 0.5% glucose, 50 μg mL^–1 ampicillin, 12.5 μg mL^–1 chloramphenicol, and 25 μM ThS. The subsequent steps mirrored those for the Aβ assay, including the addition of the compound to be tested dissolved in DMSO and 10 μL of 25% arabinose or, alternatively, 10 μL of water for the noninduced controls, with a final compound concentration of […]. Negative controls for tau overexpression utilized free DMSO.
ThS (T1892) and all other chemical reagents were purchased from Sigma (St. Louis, MO). Stock solutions of ThS (250 μM) were prepared using doubly distilled water purified via a Milli-Q system (Millipore). For the fluorescence assay, ThS spectra were recorded utilizing an AmincoBowman series 2 luminescence spectrophotometer (Aminco-Bowman AB2, SLM Aminco, Rochester, NY) within the range of 460 to 600 nm at a temperature of 25 °C. The excitation wavelength employed was 445 nm, with slit widths set at 4 nm. The emission at 485 nm, corresponding to the ThS peak observed in the presence of amyloids, was recorded. To standardize ThS fluorescence relative to bacterial concentration in both in vitro and cell-based assays, the OD600 was determined using a Shimadzu UV-2401 PC UV–vis spectrophotometer. Fluorescence normalization was executed by setting the ThS fluorescence of bacterial cells expressing the peptide or protein in the absence of the drug as 100%, while that of bacterial cells not expressing the peptide or protein was established as 0%.

Molecules are shown by their SMILES.

T2 sequence (P10636 other isoform, or with tags, fused parts or gaps): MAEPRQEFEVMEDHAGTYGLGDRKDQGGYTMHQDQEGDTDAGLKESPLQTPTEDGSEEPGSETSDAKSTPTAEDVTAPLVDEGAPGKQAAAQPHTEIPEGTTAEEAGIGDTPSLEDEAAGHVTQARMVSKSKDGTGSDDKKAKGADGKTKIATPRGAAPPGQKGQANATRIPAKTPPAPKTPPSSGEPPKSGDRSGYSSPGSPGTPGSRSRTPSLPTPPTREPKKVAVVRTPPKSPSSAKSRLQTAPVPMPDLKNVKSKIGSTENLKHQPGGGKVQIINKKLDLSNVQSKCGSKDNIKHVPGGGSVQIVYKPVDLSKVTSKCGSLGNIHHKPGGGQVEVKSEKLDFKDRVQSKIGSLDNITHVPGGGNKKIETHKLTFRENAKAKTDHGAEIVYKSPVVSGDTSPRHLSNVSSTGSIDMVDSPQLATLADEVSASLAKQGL
T1 sequence (P05067 672-713 limits assumed): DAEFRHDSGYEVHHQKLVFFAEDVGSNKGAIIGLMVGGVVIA

As usually defined, the inhibition is the relative decrease from the control value, in per cent. `COc1ccc2c(=O)c3cc4c(cc3oc2c1)-c1cc(Cl)ccc1OC4` [Compound 11r, 2-Chloro-11-methoxy-6H,8H-chromeno[3,4-b]xanthen-8-one]: the “Effect on Aβ42 fibril morphology (TEM)” value in test [1] is “inhibiting Aβ42 fibrillogenesis”. In test [2], the “Reduction in intracellular Aβ42 aggregates (ThT fluorescence)” value is given as “approximately 70%”. Moreover, in test [3], the inhibition at 50 µM is 61.3 ± 5.9%.

The record behind these values is PMC12818745 (ACS Chemical Neuroscience, 2025).
